Results on 4 compounds are retold here after patent publication US11453638B2, “Process method for producing pesticide by using carbon dioxide” (Nankai University, priority 2018, dated 2022).

Common to all, as to type: in vivo
Data set [1] relates to Ostrinia nubilalis Hubner. The experiment in a line: Activity of killing Ostrinia nubilalis Hubner (leaf soaking method). Particulars: for Mortality: 600 ppm (table), 3rd instar larvae, corn leaf dipping, 72 hours. An excerpt: 4) Activity of killing Ostrinia nubilalis Hubner: Ostrinia nubilalis Hubner, a normal population raised indoors. Test method: leaf soaking method. In the leaf dipping method, corn leaves are dipped in a liquid medicine prepared by acetone ([…]), 10 3rd instar larvae are inoculated into a culture dish after the liquid medicine is dried, and 30 test larvae are shared for three times, mainly gastric toxicity and contact killing effects, and the feeding phenomenon of the larvae is observed. Mortality was examined 72 hours later.

Data set [2] deals with Mythimna separata Walker. Description: Activity of killing Mythimna separata Walker (leaf dipping method). Particulars: for Mortality: 4th instar larvae, corn leaf dipping, 24 hours. How it is done: 1) Activity of killing Mythimna separata Walker: Mythimna separata Walker, a normal population raised indoors. In the leaf dipping method, corn leaves are dipped in a liquid medicine ([…]) prepared by acetone, and the 4th instar larvae are inoculated after the liquid medicine, mainly for stomach toxicity and contact killing, and the feeding phenomenon of the larvae is observed. Mortality was examined 24 hours.

For data set [3], the system named is Helicoverpa armigera. The experiment in a line: Activity of killing Helicoverpa armigera (leaf soaking method). Particulars: for Mortality: 600 ppm, third-instar larvae, corn leaf soaking, 72 hours. How it is done:
3) Activity of killing Helicoverpa armigera:Helicoverpa armigera, a normal population raised indoors. Test method: leaf soaking method. In the leaf soaking method, corn leaves are soaked in a liquid medicine prepared by acetone (600 ppm, 600 mg/L), ground and put into 24 holes after the liquid medicine is dried, one third-instar larva is inserted into each hole, 10 are used for each time, and three times are repeated, a total of 30 test insects are tested, mainly gastric toxicity and contact killing effects, and the feeding phenomenon of the larva is observed. Mortality was examined 72 hours later.

Data set [4] relates to Culex pipiens pallens. The experiment in a line: Activity of killing Culex pipiens pallens larvae. Particulars: for Mortality: 10 ppm, 4th instar mosquito larvae in water, 24 h. How it is done: 2) Activity of killing Culexpipiens pallens larval: Culicides pallens, a normal indoor population. Weigh about 5 mg of the test compound into a penicillin vial, add 5 mL of acetone (or a suitable solvent), and shake to dissolve, i.e. 1000 μg·ml^−1 mother liquor. 0.5 mL mother liquor was removed and added into a 100 mL beaker containing […] of water. Ten 4th instar mosquito larvae were selected and poured into the beaker together with 10 mL of feeding liquid. The concentration of the liquid medicine was 10 μg·ml^−1. Place the treatment in the standard treatment room, and check the results 24 h. The blank control was an aqueous solution containing 0.5 mL of test solvent.

For the compound `CC1(C)CC(=O)C(C(=O)Nc2ccccc2)=C(Nc2ccccc2)C1` [compound 3c], the Mortality was 15% in data set [1], 30% in data set [2] (600 ppm), 10% in data set [3] and 80% in data set [4].

Regarding `CCCC1CC(=O)C(C(=O)Nc2ccccc2)=C(Nc2ccccc2)C1` (centres unmarked) [compound 3e], the Mortality is listed as 30% in data set [1], 55% in data set [2] (600 ppm), 25% in data set [3] and 100% in data set [4]. Further, the “lethal rate to Culex pipiens larvae” value in data set [4] (concentration of 10 ppm) is 100%.

On to `CCC1CC(=O)C(C(=O)Nc2ccccc2)=C(Nc2ccccc2)C1` (centres unmarked) [compound 3d], for which the Mortality in data set [1] worked out at 100%; in data set [2] (200 ppm) it was 100%; in data set [3] it was 100%; in data set [4], 20%. In addition, in data set [1] (concentration of 600 ppm), the “lethal rate to Ostrinia nubilalis Hubner” value was determined as 100%. The “lethal rate to armyworm” value in data set [2] (concentration of 200 ppm) worked out at 100%. Further, in data set [3] (concentration of 600 ppm), the “lethal rate to cotton bollworm” value is 100%.

Turning to `CC1CC(=O)C(C(=O)Nc2ccccc2)=C(Nc2ccccc2)C1` (centres unmarked) [compound 3b], the Mortality came out at 20% in data set [1], 35% in data set [2] (600 ppm), 15% in data set [3] and 70% in data set [4].
